Data: PMC4038472, “Exploring the Potential of Flubendazole in Filariasis Control: Evaluation of the Systemic Exposure for Different Pharmaceutical Preparations” (PLoS Neglected Tropical Diseases, 2014)
Read-outs that look alike come from different tables or passages of the source.

Assays:
[1] = Plasma pharmacokinetics of FLBZ and metabolites after oral or sc FLBZ formulations in jirds; assay type: in vivo, jirds (Meriones unguiculatus)
Procedure: Jirds and rats were randomly allocated into four experimental groups (44 animals each). Experimental animals received the following treatments: FLBZ-CDoral, dosed orally (administered volume 0.25 and 1 mL for jirds and rats, respectively) in a CD-based solution (Cavasol); FLBZ-CDsc, dosed subcutaneously (sc) (injection volume of 0.25 and 1 mL for jirds and rats, respectively) in a CD-based solution (Cavitron); FLBZ-TWEEN, dosed sc (injection volume of 0.1 and 0.4 mL for jirds and rats, respectively) in a Tween-based formulation; and FLBZ-CMC, dosed orally (same volume as for FLBZ-CDoral) in a CMC-based suspension. The oral dose was administered using an intragastric tube. […] Plasma was separated by centrifugation at 2000× g for 15 min, placed into plastic tubes and frozen at −20°C until analysis by HPLC to quantify FLBZ, R-FLBZ and H-FLBZ plasma concentrations. After sc administration of the formulations, potential injection site reactions were evaluated by direct visual observation at the sampling time.
(§1) Chromatography was performed on a Shimadzu HPLC platform (Shimadzu Corporation, Kyoto, Japan), with two LC-10AS solvent pumps, an automatic sample injector (SIL-10A) with a 50 µL loop, an ultraviolet-visible spectrophotometric detector (UV) (SPD-10A) reading at 292 nm, a column oven (Eppendorf TC-45, Eppendorf, Madison, WI, USA) set at 30°C, and a CBM-10A integrator. […]

[2] = assay type: in vivo; conditions: for Time at which peak plasma concentrations were observed: range according to the experimental group and animal species (rats and jirds), FLBZ 5 mg/kg
Procedure: Jirds and rats were randomly allocated into four experimental groups (44 animals each). Experimental animals received the following treatments: FLBZ-CDoral, dosed orally (administered volume 0.25 and 1 mL for jirds and rats, respectively) in a CD-based solution (Cavasol); FLBZ-CDsc, dosed subcutaneously (sc) (injection volume of 0.25 and 1 mL for jirds and rats, respectively) in a CD-based solution (Cavitron); FLBZ-TWEEN, dosed sc (injection volume of 0.1 and 0.4 mL for jirds and rats, respectively) in a Tween-based formulation; and FLBZ-CMC, dosed orally (same volume as for FLBZ-CDoral) in a CMC-based suspension. The oral dose was administered using an intragastric tube. All treatments were given as a single dose of 5 mg/kg. The dose was selected because it is the dose previously reported in efficacy studies performed in the murine model. At defined time-points following treatment (5, 15 and 30 min, 1, 2, 3, 4, 6, 9, 12 and 16 h), blood samples were collected (n = 4 per time point) in heparinized plastic tubes. Plasma was separated by centrifugation at 2000× g for 15 min, placed into plastic tubes and frozen at −20°C until analysis by HPLC to quantify FLBZ, R-FLBZ and H-FLBZ plasma concentrations. After sc administration of the formulations, potential injection site reactions were evaluated by direct visual observation at the sampling time.
as §1, with “integrator. Data and chromatograms were collected and analyzed using the Class LC10 software (SPD-10A, Shimadzu Corporation, Kyoto, Japan). The C18 reversed-phase column (5 µm, 250 mm×4.6 mm) was Kromasil (Kromasil®, Sweden).” for “integrator.”
Plasma samples (100 or 200 µL for jirds and rats, respectively) were spiked with OBZ as internal standard. […] Complete validation of the analytical procedures for extraction and quantification of drug and metabolites in plasma was performed before starting the analysis of experimental samples. […] The limit of quantification (FLBZ and metabolites was 0.01 µg/mL), defined as the lowest measured concentration with a CV <20%, accuracy of ±20% and absolute recovery ≥70%.
The peak concentration (Cmax) and time to peak concentration (Tmax) were read from the plotted concentration–time curve for each analyte. The area under the concentration–time curve from 0 up to the limit of quantification (AUC0-LOQ) for FLBZ and metabolites was calculated by the trapezoidal rule, using the PKSolutionTM computer program (Summit Research Services, Ashland, OR, USA). […]

[3] = mouse, in vivo; cited from earlier work
[4] = design: method as in earlier work; conditions: pigs after FLBZ treatment; cited from earlier work

Row | SMILES | R-FLBZ AUC0-LOQ as share of the total drug recovered from plasma ([1]; the different groups, FLBZ 5 mg/kg) | Amount of R-FLBZ metabolite present in the bloodstream ([2]; rat, in vivo) | R-FLBZ AUC0-LOQ as share of the total drug recovered from plasma ([2]; rat, in vivo, 5 mg/kg) | Increase of systemic exposure compared to the conventional FLBZ suspension [3] | Plasma AUC, fold higher than conventional suspension [3] [fold] | Plasma Cmax, fold higher than conventional suspension [3] [fold] | Time at which peak plasma concentrations were observed [2] [h] | H-FLBZ concentrations as share of the total amount of drug recovered in plasma ([1]; FLBZ-CD (oral or sc) or FLBZ-TWEEN, 5 mg/kg) | H-FLBZ as share of total drug measured in the bloodstream [4] [%]
1 | COC(=O)Nc1nc2ccc(C(O)c3ccc(F)cc3)cc2[nH]1 (stereo not shown) [R-FLBZ] | about 10% | only trace amounts | about 10% | – | – | – | – | – | –
2 | COC(=O)Nc1nc2cc(C(=O)c3ccc(F)cc3)ccc2[nH]1 [FLBZ, flubendazole] | – | – | – | more than 25 fold | 27 | 28 | 0.7 to 3.2 | – | –
3 | Nc1nc2cc(C(=O)c3ccc(F)cc3)ccc2[nH]1 [H-FLBZ] | – | – | – | – | – | – | 3.0 to 5.2 | 10–20% | 97
